Reference: US8394797B2, “Substituted pyrazole sigma receptor antagonists” (Laboratorios Del Dr. Esteve, S.A., priority 2004, dated 2013)
Counter-ions that a name gives are not always drawn. Like-named read-outs stand apart in the source and are kept apart here.

Legend:
[1] = tested on: carrageenan-induced thermal hyperalgesia in mice; assay: Carrageenan-induced thermal hyperalgesia model (plantar test, Hargreaves); type: in vivo; conditions: for activity in the carrageenan thermal hyperalgesia model: mice, two hours after carrageenan
Method: Some compounds were also evaluated for antinociceptive activity in the carrageenan-induced thermal hyperalgesia model in mice. In this model, two hours after carrageenan injection into the paw, the plantar test was used to assess thermal hyperalgesia according to the method described by Hargreaves et al. (1988). The compounds of Examples 58 and 62.

[2] = tested on: mechanical allodynia after partial sciatic nerve ligation in mice; assay: Partial sciatic nerve ligation model of neuropathic pain (von Frey test); type: in vivo; conditions: 30 mg/kg s.c.; 11-13 days after surgery
Excerpt: The von Frey test was used to assess mechanical allodynia 11-13 days after surgery.

[3] = tested on: capsaicin-induced mechanical allodynia in mice; assay: Effect on capsaicin in development of mechanical allodynia (von Frey filaments); type: in vivo; conditions: for antiallodynic effect: mice, capsaicin, von Frey filaments
Method: Effect on Capsaicin in Development of Mechanical Allodynia This model uses the von-Frey Filaments and is a model to test the effects or symptoms of neuropathic pain, allodynia etc. […]. After habituation mice were according to FIG. 1 first treated with the test-compound (or solvent in controls). Then […] (1% DMSO) is injected into their paw resulting in developing pain in the effected paw. The effected paw is then treated with a mechanical stimulus and the latency time before the paw is withdrawn is measured.

σ1-receptor = biological target: T1, σ1-receptor (Cavia porcellus, UniProt Q60492); assay: Sigma-1 receptor binding, [3H](+)-pentazocine, brain membranes; set-up: species or system guinea pig; conditions: for inhibition at 1 µM: 2.5 h, read-out: binding sigma-1 (*) % of radioactively labeled compound replaced by the tested compound
T1 construct: guinea pig brains were homogenized; from tissue; host or cells: guinea pig brain membranes

σ2-receptor = biological target: T2, σ2-receptor (Mus musculus, UniProt Q8VD00); assay: Sigma-2 receptor binding, [3H]-DTG, brains from sigma-1 knockout mice; conditions: for inhibition at 1 µM: 2 h, tested compound at 10^-6 M, [3H]-DTG 3 nM, read-out: binding sigma-2 (*) % of radioactively labeled compound replaced by the tested compound; for Ki: [3H]-DTG, sigma-1 knockout mouse brain
T2 construct: brains from sigma receptor type I (sigma-1) knockout mice were homogenized; from tissue; host or cells: brain membranes of sigma-1 knockout mice
T2 sequence (Q8VD00 1-176): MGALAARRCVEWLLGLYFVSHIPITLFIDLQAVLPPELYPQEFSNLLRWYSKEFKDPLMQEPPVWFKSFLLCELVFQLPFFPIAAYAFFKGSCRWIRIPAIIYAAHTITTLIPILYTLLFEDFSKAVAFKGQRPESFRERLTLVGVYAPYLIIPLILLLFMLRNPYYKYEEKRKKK
Method: In brief, brains from sigma receptor type I (sigma-1) knockout mice were homogenized in a volume of 10 mL/g tissue net weight of ice-cold 10 mM Tris-HCl, pH 7.4, containing 320 mM sucrose (Tris-sucrose buffer) with a Potter-Elvehjem homogenizer (10 strokes at 500 r.p.m.) The homogenates were then centrifuged at 1000 g for 10 min at 4° C., and the supernatants were saved. The pellets were resuspended by vortexing in 2 mL/g ice-cold Tris-sucrose buffer and centrifuged again at 1000 g for 10 min. The combined 1000 g supernatants were centrifuged at 31000 g for 15 min at 4° C. The pellets were resuspended by vortexing in 3 mL/g 10 mM Tris-HCl, pH 7.4, and the suspension was kept at 25° C. for 15 min.
The assay tubes contained 10 μL of [^3H]-DTG (final concentration of 3 nM), 400 μL of the tissue suspension (5.3 mL/g in 50 mM Tris-HCl, pH 8.0) to a final assay volume of 0.5 mL. Non-specific binding was defined by addition of a final concentration of 1 μM haloperidol. […] Filters were washed with three times with 5 mL volumes of cold Tris-HCl buffer (10 mM, pH 8.0). Following addition of scintillation cocktail samples were allowed to equilibrate overnight.

sigma-1 site = sigma-1 site (Homo sapiens, UniProt Q99720); conditions: cited from earlier work
sigma-2 site = sigma-2 site (Homo sapiens, UniProt Q5BJF2); conditions: cited from earlier work
[4] = tested compound at 10^-6 M, [3H](+)-pentazocine 0.5 nM
[5] = [3H](+)-pentazocine, guinea pig brain membranes, read-out: binding sigma-1 Ki

T1 sequence (Q60492 whole entry): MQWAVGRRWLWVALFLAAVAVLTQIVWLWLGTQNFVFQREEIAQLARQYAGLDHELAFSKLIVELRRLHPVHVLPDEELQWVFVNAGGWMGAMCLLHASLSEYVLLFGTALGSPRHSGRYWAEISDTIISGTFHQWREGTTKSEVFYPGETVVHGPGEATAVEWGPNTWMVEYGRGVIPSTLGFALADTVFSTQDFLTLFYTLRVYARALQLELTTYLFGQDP
Sequence of sigma-2 site (Q5BJF2 whole entry): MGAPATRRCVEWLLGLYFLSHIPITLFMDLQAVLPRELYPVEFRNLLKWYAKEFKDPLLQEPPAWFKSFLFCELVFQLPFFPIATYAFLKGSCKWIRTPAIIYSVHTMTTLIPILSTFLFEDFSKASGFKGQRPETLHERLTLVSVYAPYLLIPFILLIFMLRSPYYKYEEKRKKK
Sequence of sigma-1 site (Q99720 whole entry): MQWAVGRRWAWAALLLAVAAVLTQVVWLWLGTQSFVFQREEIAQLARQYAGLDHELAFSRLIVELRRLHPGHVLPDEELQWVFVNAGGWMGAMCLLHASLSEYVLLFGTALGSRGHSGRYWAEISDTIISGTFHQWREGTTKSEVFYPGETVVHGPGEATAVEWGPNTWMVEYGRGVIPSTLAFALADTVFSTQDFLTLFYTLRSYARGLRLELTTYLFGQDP

Row | Molecule | inhibition at 1 µM (σ1-receptor; [4]) [%] | Ki (σ1-receptor; [5]) [nM] | melting point [°C] | inhibition at 1 µM (σ2-receptor) [%] | Ki (σ2-receptor) [nM] | also measured
1 | CN(CCC1CCCc2c1cnn2C)Cc1ccccc1.O=C(O)C(=O)O (stereo not shown) [Example 62, N-benzyl-2-(4,5,6,7-tetrahydro-1-methyl-1H-indazol-4-yl)-N-methylethanamine oxalate] | 104 | 11.1 | 140.2 to 141.7 | 93.5 | 11.9 | analgesia ([1]; 2.5 mg/kg): 40%; analgesia ([1]; 10 mg/kg): 75%; analgesia ([1]; 40 mg/kg): 90%; activity in the carrageenan thermal hyperalgesia model [1]: highly active; inhibition of mechanical allodynia [2]: significant inhibition of mechanical allodynia; antiallodynic effect [3]: clear antiallodynic effect
2 | C(/CN1CCOCC1)=C1/CCCc2c1cnn2-c1ccccc1.O=C(O)C(=O)O [Example 77, (E)-4,5,6,7-tetrahydro-4-(2-(morpholin-4-yl)ethylidene)-1-phenyl-1H-indazole oxalate] | – | – | – | – | – | antiallodynic effect [3]: clear antiallodynic effect
3 | O=C(O)C(=O)O.c1ccc(-n2ncc3c2CCC3CCN2CCOCC2)cc1 (stereo not shown) [Example 31, 1,4,5,6-tetrahydro-4-(2-(morpholin-4-yl)ethyl)-1-phenylcyclopenta[c]pyrazole oxalate] | 101 | 1.2 | 159 to 161.8 | 88.7 | 17.5 | –
4 | O=C(O)C(=O)O.c1ccc(C2CCN(CCC3CCCc4c3cnn4-c3ccccc3)CC2)cc1 (stereo not shown) [Example 9, 4,5,6,7-tetrahydro-1-phenyl-4-(2-(4-phenylpiperidin-1-yl)ethyl)-1H-indazole oxalate] | 101 | 1.5 | 124 to 125 | 107 | 37.5 | –
5 | O=C(O)C(=O)O.c1ccc(-n2ncc3c2CCCC3CCN2CCC3(CC2)OCc2ccccc23)cc1 (stereo not shown) [Example 12, 4,5,6,7-tetrahydro-1-phenyl-4-(2-[spiro[isobenzofuran-1(3H), 4′-piperidin]-1′-yl]ethyl)-1H-indazole oxalate] | – | – | 133 to 135 | 98.8 | 37 | Ki (σ1-receptor): 0.9 nM; inhibition at 1 µM (σ1-receptor): 100%
6 | C(/CN1CCC2(CC1)OCc1ccccc12)=C1/CCCc2c1cnn2-c1ccccc1.O=C(O)C(=O)O [Example 19, (E)-4,5,6,7-tetrahydro-1-phenyl-4-(2-[spiro[isobenzofuran-1(3H), 4′-piperidin]-1′-yl]ethylidene)-1H-indazole oxalate] | – | – | 155 to 157 | 91 | 479 | Ki (σ1-receptor): 4.9 nM; inhibition at 1 µM (σ1-receptor): 100%
7 | O=C(O)C(=O)O.c1ccc(-n2ncc3c2CCC3CCN2CCC3(CC2)OCc2ccccc23)cc1 (stereo not shown) [Example 51, 1,4,5,6-tetrahydro-1-phenyl-4-(2-[spiro[isobenzofuran-1(3H), 4′-piperidin]-1′-yl]ethyl)cyclopenta[c]pyrazole oxalate] | – | – | 170.5 to 173.6 | 113 | – | Ki (σ1-receptor): 31.3 nM; inhibition at 1 µM (σ1-receptor): 107%
8 | c1ccc(-n2ncc3c2CCCC3CCN2CCOCC2)cc1 (stereo not shown) [Example 2, 4,5,6,7-tetrahydro-4-(2-(morpholin-4-yl)ethyl)-1-phenyl-1H-indazole oxalate] | – | – | – | – | – | antiallodynic effect [3]: clear antiallodynic effect
9 | c1ccc(-n2ncc3c2CCC3CCn2ccnc2)cc1 (stereo not shown) [Example 45, 4-(2-(1H-imidazol-1-yl)ethyl)-1,4,5,6-tetrahydro-1-phenylcyclopenta[c]pyrazole] | 76.4 | 143 | 102.9 to 105.7 | 22.8 | – | –
10 | C(/CN1CCCCCC1)=C1/CCCc2c1cnn2-c1ccccc1.O=C(O)C(=O)O [Example 16, (E)-4-(2-(azepan-1-yl)ethylidene)-4,5,6,7-tetrahydro-1-phenyl-1H-indazole oxalate] | 99.9 | 1.5 | 171 to 173 | 93 | – | –
11 | Cn1ncc2c1CCCC2CCN1CCC(c2ccccc2)CC1.O=C(O)C(=O)O (stereo not shown) [Example 58, 4,5,6,7-tetrahydro-1-methyl-4-(2-(4-phenylpiperidin-1-yl)ethyl)-1H-indazole oxalate] | 106 | 1.1 | – | 100 | 6.3 | analgesia ([1]; 2.5 mg/kg): 60%; analgesia ([1]; 10 mg/kg): ~90%; activity in the carrageenan thermal hyperalgesia model [1]: highly active; analgesia ([3]; 2 mg/kg): 100%; antiallodynic effect [3]: clear antiallodynic effect
12 | O=C(O)C(=O)O.c1ccc(-n2ncc3c2CCCC3CCN2Cc3ccccc3C2)cc1 (stereo not shown) [Example 56, 4,5,6,7-tetrahydro-4-(2-(isoindolin-2-yl)ethyl)-1-phenyl-1H-indazole oxalate] | 106 | 0.3 | 195.7 to 200 | 109 | 1.4 | –
13 | O=C(O)C(=O)O.c1ccc(-n2ncc3c2CCC3CCN2Cc3ccccc3C2)cc1 (stereo not shown) [Example 35, 2-(2-(1,4,5,6-tetrahydro-1-phenylcyclopenta[c]pyrazol-4-yl)ethyl)isoindoline oxalate] | 101 | 9.3 | 195 to 197 | 26.4 | – | –
14 | C(/CN1CCCC(c2ccccc2)C1)=C1/CCCc2c1cnn2-c1ccccc1 (stereo not shown) [Example 23, (E)-4,5,6,7-tetrahydro-1-phenyl-4-(2-(3-phenylpiperidin-1-yl)ethylidene)-1H-indazole] | 99.4 | 23.3 | 136 to 138 | 67.4 | – | –
15 | Clc1ccc(-n2ncc3c2CCCC3CCN2CCOCC2)cc1Cl.O=C(O)C(=O)O (stereo not shown) [Example 7, 1-(3,4-dichlorophenyl)-4,5,6,7-tetrahydro-4-(2-(morpholin-4-yl)ethyl)-1H-indazole oxalate] | 100 | 4.3 | 148 to 149.8 | 98.1 | – | –
16 | c1ccc(CN2CCN(CCC3CCCc4c3cnn4-c3ccccc3)CC2)cc1 (stereo not shown) [Example 10, 4-(2-(4-benzylpiperazin-1-yl)ethyl)-4,5,6,7-tetrahydro-1-phenyl-1H-indazole] | 100 | 6.1 | 98 to 101 | 70.2 | – | –
17 | C(/CN1CCOCC1)=C1/CCCc2c1cnn2-c1ccccc1 [Example 5, (E)-4,5,6,7-tetrahydro-4-(2-(morpholin-4-yl)ethylidene)-1-phenyl-1H-indazole] | 94 | 37.2 | 114 to 116 | 39 | – | –
18 | c1ccc(C2CCN(CCC3CCc4c3cnn4-c3ccccc3)CC2)cc1 (stereo not shown) [Example 36, 1,4,5,6-tetrahydro-1-phenyl-4-(2-(4-phenylpiperidin-1-yl)ethyl)cyclopenta[c]pyrazole] | 103 | 5.9 | 83 to 86 | 87.9 | – | –
19 | SKF 10047 | – | – | – | – | – | affinity for the sigma-1 site (sigma-1 site): nanomolar affinity; affinity for the sigma-2 site (sigma-2 site): micromolar affinity
